What was measured:
[1] = target: T1, Mineralocorticoid receptor (Homo sapiens, UniProt P08235); assay type: functional, cell-based, Huh-7;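 also: antagonism at Gal4-fused mineralocorticoid receptor in human Huh7 cells, measured by luciferase reporter gene read-out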
T1 sequence (P08235 whole entry): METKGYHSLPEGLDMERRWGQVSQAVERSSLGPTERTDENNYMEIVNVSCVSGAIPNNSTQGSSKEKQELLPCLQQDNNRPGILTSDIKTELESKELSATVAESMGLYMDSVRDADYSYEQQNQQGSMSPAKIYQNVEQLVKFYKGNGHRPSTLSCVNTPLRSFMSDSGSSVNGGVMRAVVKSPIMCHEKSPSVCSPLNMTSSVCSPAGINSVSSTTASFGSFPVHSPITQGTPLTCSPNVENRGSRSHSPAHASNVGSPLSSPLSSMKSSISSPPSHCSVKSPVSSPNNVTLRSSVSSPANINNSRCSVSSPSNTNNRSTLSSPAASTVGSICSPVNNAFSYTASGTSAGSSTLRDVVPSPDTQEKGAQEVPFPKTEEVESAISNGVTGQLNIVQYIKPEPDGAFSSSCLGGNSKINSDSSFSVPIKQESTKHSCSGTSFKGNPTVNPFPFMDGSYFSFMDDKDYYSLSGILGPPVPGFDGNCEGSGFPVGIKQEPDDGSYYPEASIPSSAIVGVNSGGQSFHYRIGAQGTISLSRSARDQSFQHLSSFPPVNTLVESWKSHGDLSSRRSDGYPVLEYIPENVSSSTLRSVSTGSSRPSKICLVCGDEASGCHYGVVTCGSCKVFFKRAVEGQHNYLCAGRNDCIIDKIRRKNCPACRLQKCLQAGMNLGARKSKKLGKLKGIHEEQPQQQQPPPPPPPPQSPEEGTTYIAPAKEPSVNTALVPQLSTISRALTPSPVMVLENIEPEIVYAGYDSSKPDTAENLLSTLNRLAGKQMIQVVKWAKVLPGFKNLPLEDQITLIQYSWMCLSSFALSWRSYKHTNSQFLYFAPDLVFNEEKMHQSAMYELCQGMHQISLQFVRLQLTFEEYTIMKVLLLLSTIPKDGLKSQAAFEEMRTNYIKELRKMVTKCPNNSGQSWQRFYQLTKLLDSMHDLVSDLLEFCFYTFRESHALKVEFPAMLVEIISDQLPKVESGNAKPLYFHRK

[2] = target: Voltage-gated inwardly rectifying potassium channel KCNH2 (Homo sapiens, UniProt Q12809)
Sequence of Voltage-gated inwardly rectifying potassium channel KCNH2 (Q12809 whole entry): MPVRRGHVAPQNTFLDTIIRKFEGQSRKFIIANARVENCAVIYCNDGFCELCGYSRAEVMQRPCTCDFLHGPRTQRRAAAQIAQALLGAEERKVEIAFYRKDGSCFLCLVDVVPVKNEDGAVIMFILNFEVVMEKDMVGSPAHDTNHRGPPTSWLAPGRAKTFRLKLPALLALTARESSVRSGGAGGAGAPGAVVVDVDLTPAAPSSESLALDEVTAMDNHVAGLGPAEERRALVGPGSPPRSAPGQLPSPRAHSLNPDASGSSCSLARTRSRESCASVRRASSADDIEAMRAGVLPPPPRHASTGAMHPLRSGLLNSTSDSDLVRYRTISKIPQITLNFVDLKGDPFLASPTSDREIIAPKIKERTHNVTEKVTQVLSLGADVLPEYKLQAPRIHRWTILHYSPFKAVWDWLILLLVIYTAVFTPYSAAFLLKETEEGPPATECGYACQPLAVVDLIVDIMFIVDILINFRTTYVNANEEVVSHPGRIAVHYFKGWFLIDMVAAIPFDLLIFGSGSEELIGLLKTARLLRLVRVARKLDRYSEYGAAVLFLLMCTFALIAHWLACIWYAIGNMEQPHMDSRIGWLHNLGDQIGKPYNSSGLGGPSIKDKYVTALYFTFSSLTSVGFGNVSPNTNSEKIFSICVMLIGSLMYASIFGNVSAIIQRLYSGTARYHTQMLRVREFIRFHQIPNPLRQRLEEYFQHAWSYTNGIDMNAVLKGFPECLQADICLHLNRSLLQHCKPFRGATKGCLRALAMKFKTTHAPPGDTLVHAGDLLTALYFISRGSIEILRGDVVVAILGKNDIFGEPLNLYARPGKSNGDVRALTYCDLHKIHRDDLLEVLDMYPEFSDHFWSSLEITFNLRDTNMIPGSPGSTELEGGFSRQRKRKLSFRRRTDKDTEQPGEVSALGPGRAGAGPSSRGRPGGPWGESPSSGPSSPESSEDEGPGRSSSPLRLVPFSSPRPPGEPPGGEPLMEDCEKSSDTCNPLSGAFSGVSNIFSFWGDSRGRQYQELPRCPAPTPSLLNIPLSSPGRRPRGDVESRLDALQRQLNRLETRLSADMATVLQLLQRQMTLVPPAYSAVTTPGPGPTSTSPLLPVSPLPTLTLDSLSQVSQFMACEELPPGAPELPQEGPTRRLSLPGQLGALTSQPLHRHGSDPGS

[3] = Volume of distribution at steady state in Sprague-Dawley rat at 2 mg/kg, iv; assay type: ADME, organism-based; design: dose 2 mg/kg, route intravenous; settings: in vivo, read-out: Vdss
[4] = Oral bioavailability in Sprague-Dawley rat at 2 mg/kg; assay type: ADME, organism-based; settings: in vivo
[5] = Clearance in Sprague-Dawley rat at 2 mg/kg, iv; assay type: ADME, organism-based; design: dose 2 mg/kg, route intravenous; settings: in vivo
[6] = Half life in Sprague-Dawley rat at 2 mg/kg, iv; assay type: ADME, organism-based; design: dose 2 mg/kg, route intravenous; settings: in vivo
[7] = target: T2, Estrogen receptor (Homo sapiens, UniProt P03372); assay: Antagonist activity at estrogen receptor; assay type: functional
T2 sequence (P03372 whole entry): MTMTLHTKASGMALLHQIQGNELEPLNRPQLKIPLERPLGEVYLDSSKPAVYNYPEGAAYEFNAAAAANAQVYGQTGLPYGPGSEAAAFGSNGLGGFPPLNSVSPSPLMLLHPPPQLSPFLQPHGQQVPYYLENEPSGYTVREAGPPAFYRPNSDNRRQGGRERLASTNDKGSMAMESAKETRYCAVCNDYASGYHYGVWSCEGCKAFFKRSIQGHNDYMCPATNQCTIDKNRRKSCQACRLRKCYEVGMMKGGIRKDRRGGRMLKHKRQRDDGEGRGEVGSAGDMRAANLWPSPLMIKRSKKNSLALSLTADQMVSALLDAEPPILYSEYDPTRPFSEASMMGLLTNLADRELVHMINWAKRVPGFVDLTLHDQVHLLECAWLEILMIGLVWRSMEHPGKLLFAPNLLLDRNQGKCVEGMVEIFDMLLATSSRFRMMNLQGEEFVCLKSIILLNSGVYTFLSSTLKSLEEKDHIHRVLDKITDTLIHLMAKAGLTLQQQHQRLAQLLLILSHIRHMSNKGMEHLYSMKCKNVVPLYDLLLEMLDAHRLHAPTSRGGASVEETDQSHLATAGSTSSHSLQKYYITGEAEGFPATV

Row | Structure (SMILES) | IC50 [1] | also measured
1 | N#Cc1ccc(N2N=C3c4ccc(C(=O)O)cc4CC[C@@H]3[C@@H]2C2C=CC=CO2)cc1Cl (mixture of isomers) | 127 nM | –
2 | N#Cc1ccc(N2N=C(c3ccc(C(=O)O)c(OC(F)(F)F)c3)C[C@@H]2C2CCCC2)cc1Cl | 80 nM | –
3 | COCc1cc(N2N=C3c4ccc(C(=O)O)cc4CC[C@@H]3[C@@H]2C2CCCC2)ccc1C#N | 150 nM | –
4 | O=C(O)c1ccc(C2=NN(c3ccc(C(=O)O)cc3)C(c3ccc(F)cc3)C2)cc1 (racemic) | > 10000 nM | –
5 | Cc1cc(N2N=C(c3ccc(C(=O)O)cc3)CC2c2ccc(F)cc2)ccc1C#N (racemic) | 56 nM | –
6 | N#Cc1ccc(N2N=C(c3ccc(C(=O)O)cc3)CC2Cc2ccccc2)cc1 (racemic) | 3650 nM | –
7 | N#Cc1ccc(N2N=C(c3ccc(C(=O)O)c(Cl)c3)C[C@@H]2C2CCCC2)cc1Cl | 26 nM | –
8 | N#Cc1ccc(N2N=C(c3ccc(C(=O)O)cc3)C[C@H]2c2ccc(F)cc2)cc1 | 8360 nM | –
9 | N#Cc1ccc(N2N=C(c3ccc4[nH]c(=O)oc4c3)CC2c2ccc(C(=O)O)cc2)cc1 (racemic) | > 10000 nM | IC50 [2]: > 30000 nM
10 | N#Cc1ccc(N2N=C(c3ccc4[nH]c(=O)oc4c3)CC2c2ccc(F)cc2)cc1 (racemic) | 58 nM | –
11 | N#Cc1ccc(N2N=C3c4ccc(C(=O)O)cc4CC[C@@H]3[C@@H]2c2ccc(F)cc2)cc1 (racemic) | 553 nM | –
12 | N#Cc1ccc(N2N=C(c3ccc(C(=O)O)cc3)CC2c2ccc(F)cc2)cc1C(F)(F)F (racemic) | 127 nM | –
13 | N#Cc1ccc(N2N=C(c3ccc(C(=O)O)cc3)CC2c2ccncc2)cc1 (racemic) | > 10000 nM | –
14 | N#Cc1ccc(N2N=C(c3ccc(C(=O)O)cc3)CC2c2ccccn2)cc1 (racemic) | > 10000 nM | –
15 | N#Cc1ccc(N2N=C(c3ccc4[nH]c(=O)oc4c3)C[C@H]2c2ccc(F)cc2)cc1 | 2080 nM | –
16 | N#Cc1ccc(N2N=C(c3ccc(C(=O)O)cc3)CC2C2CCCCC2)cc1 (racemic) | 1290 nM | –
17 | N#Cc1ccc(N2N=C(c3ccc(C(=O)O)cc3)CC2c2cccnc2)cc1 (racemic) | > 10000 nM | –
18 | N#Cc1ccc(N2N=C3c4ccc(C(=O)O)cc4CC[C@@H]3[C@@H]2C2CCC2)cc1Cl (racemic) | 21 nM | –
19 | O=[N+]([O-])c1ccc(N2N=C(c3ccc(O)cc3)CC2c2ccc(F)cc2)cc1 (racemic) | 460 nM | –
20 | CC(C)CC1CC(c2ccc(C(=O)O)cc2)=NN1c1ccc(C#N)cc1 (racemic) | 2530 nM | –

Row | Structure (SMILES) | IC50 [1] | also measured
21 | CCOC(=O)c1ccc(N2N=C(c3ccc(C(=O)O)cc3)CC2c2ccc(F)cc2)cc1 (racemic) | 180 nM | –
22 | N#Cc1ccc(N2N=C(c3ccc(C(=O)O)cc3)CC2c2ccc(F)cc2)cc1Cl (racemic) | 56 nM | –
23 | N#Cc1ccc(N2N=C3c4ccc(C(=O)O)cc4CO[C@@H]3[C@@H]2C2CCCC2)cc1Cl (stereo in doubt) | 65 nM | –
24 | N#Cc1ccc(N2N=C3c4ccc(C(=O)O)cc4C[C@@H]3[C@@H]2c2ccc(F)cc2)cc1 (racemic) | 4340 nM | –
25 | N#Cc1ccc(N2N=C(c3ccc(C(=O)O)c(F)c3)C[C@@H]2C2CCCC2)cc1Cl | 52 nM | –
26 | N#Cc1ccc(N2N=C3c4ccc(C(=O)O)cc4CC[C@H]3[C@H]2c2ccc(F)cc2)cc1Cl (racemic) | 223 nM | –
27 | N#Cc1ccc(N2N=C3c4ccc(C(=O)O)cc4CC[C@@H]3[C@@H]2C2CC=CC2)cc1Cl (racemic) | 15 nM | –
28 | N#Cc1ccc(N2N=C(c3ccc(C(=O)O)c(OCCCO)c3)C[C@@H]2C2CCCC2)cc1Cl | 13 nM | –
29 | COc1cc(C(=O)O)ccc1C1=NN(c2ccc(C#N)c(Cl)c2)[C@@H](C2CCCC2)C1 | 2 nM | –
30 | N#Cc1ccc(N2N=C(c3ccc(CC(=O)O)cc3)C[C@@H]2C2CCCC2)cc1Cl | 135 nM | –
31 | O=C(O)c1ccc(N2N=C(c3ccc4[nH]c(=O)oc4c3)CC2c2ccc(F)cc2)cc1 (racemic) | 784 nM | IC50 [2]: > 30000 nM
32 | N#Cc1ccc(N2N=C(c3ccc(C(=O)O)cc3)CC2c2cccc(F)c2)cc1 (racemic) | 441 nM | –
33 | N#Cc1ccc(N2N=C(c3ccc(C(=O)O)cc3)CC2c2ccc(F)cc2)c(F)c1 (racemic) | 535 nM | –
34 | COc1cccc(C2CC(c3ccc(C(=O)O)cc3)=NN2c2ccc(C#N)cc2)c1 (racemic) | 1590 nM | –
35 | N#Cc1ccc(N2N=C(c3ccc(C(=O)O)cc3)C[C@@H]2c2ccc(F)cc2)cc1 | 101 nM | –
36 | N#Cc1ccc(N2N=C3c4ccc(C(=O)O)cc4CC[C@@H]3[C@@H]2C2CCCO2)cc1Cl (mixture of isomers) | 720 nM | –
37 | COc1cc(C2=NN(c3ccc(C#N)c(Cl)c3)[C@@H](C3CCCC3)C2)ccc1C(=O)O | – | Vd [3]: 3.9 L/kg; bioavailability [4]: 57%; clearance [5]: 24 mL/min/kg; half-life [6]: 1.9 h; IC50 [7]: > 10000 nM
38 | O=C(O)c1ccc(C2=NN(c3ccccc3)C(c3ccc(F)cc3)C2)cc1 (racemic) | 9730 nM | –
39 | COc1cc(C2=NN(c3ccc(C#N)c(Cl)c3)[C@@H](C3CCCC3)C2C)ccc1C(=O)O (single isomer, unassigned) | 69 nM | –
40 | N#Cc1ccc(N2N=C(c3ccc(C(=O)O)cc3)CC2c2ccc(F)cc2)cc1C#N (racemic) | > 1000 nM | –

Row | Structure (SMILES) | IC50 [1] | also measured
41 | N#Cc1ccc(N2N=C(c3ccc(C(=O)O)cc3)CC2c2cccs2)cc1 (racemic) | 763 nM | –
42 | N#Cc1ccc(N2N=C(c3ccc(C(=O)O)cc3)CC2c2ccc(F)cc2)cc1 (racemic) | 246 nM | IC50 [2]: > 30000 nM
43 | N#Cc1ccc(N2N=C3c4ccc(C(=O)O)cc4CC[C@@H]3[C@@H]2C2CCCC2)cc1OCc1ccccc1 (racemic) | 488 nM | –
44 | Cc1cc(N2N=C3c4ccc(C(=O)O)cc4CC[C@@H]3[C@@H]2C2CCCC2)ccc1C#N (racemic) | 4 nM | –
45 | CC(C)C1CC(c2ccc(C(=O)O)cc2)=NN1c1ccc(C#N)c(Cl)c1 (racemic) | 383 nM | –
46 | COc1cc(N2N=C3c4ccc(C(=O)O)cc4CC[C@@H]3[C@@H]2C2CCCC2)ccc1C#N (racemic) | 7 nM | –
47 | Cc1cc(N2N=C3c4ccc(C(=O)O)cc4CO[C@H]3[C@H]2C2CCCC2)ccc1C#N (racemic) | 39 nM | –
48 | COc1ccc(N2N=C(c3ccc(C(=O)O)cc3)CC2c2ccc(F)cc2)cc1 (racemic) | 1440 nM | –
49 | N#Cc1ccc(N2N=C(c3ccc(C(=O)O)cc3)CC2c2ccc(F)cc2)c(Cl)c1 (racemic) | 284 nM | –
50 | COC(=O)[C@@H]1CC2=CC(=O)CC[C@]2(C)[C@@]23O[C@@H]2C[C@@]2(C)[C@@H](CC[C@@]24CCC(=O)O4)[C@H]13 [EPLERENONE] | – | IC50 [7]: > 10000 nM
51 | Cc1nc(C)c(C2=NN(c3ccc(C#N)cc3)[C@@H](c3ccc(F)cc3)C2)s1 | 32 nM | –
52 | N#Cc1ccc(N2N=C(c3ccc4[nH]c(=O)oc4c3)C[C@@H]2c2ccc(F)cc2)cc1 | 41 nM | IC50 [2]: 29 nM
53 | N#Cc1ccc(N2N=C(c3ccc(C(=O)O)cc3)CC2c2ccco2)cc1 (racemic) | 410 nM | –
54 | N#Cc1ccc(N2N=C3c4ccc(C(=O)O)cc4CC[C@@H]3[C@@H]2C2CCCC2)cc1O (racemic) | > 500 nM | –
55 | CN(C)CCN(C)C(=O)c1ccc(C2=NN(c3ccc(C#N)cc3)C(c3ccc(F)cc3)C2)cc1 (racemic) | 83 nM | IC50 [2]: 170 nM
56 | N#Cc1ccc(N2N=C3c4ccc(C(=O)O)cc4CO[C@H]3[C@H]2C2CCCC2)cc1Cl (stereo in doubt) | 146 nM | –
57 | N#Cc1ccc(N2N=C(c3ccc(C(=O)O)cc3)CC2c2ccc(F)cc2)cc1F (racemic) | 243 nM | –
58 | N#Cc1ccc(N2N=C(c3ccc(C(=O)O)cc3)CC2C2CCCC2)cc1Cl (racemic) | 54 nM | –
59 | N#Cc1ccc(N2N=C3c4ccc(C(=O)O)cc4CO[C@@H]3[C@@H]2c2ccc(F)cc2)cc1Cl (racemic) | 849 nM | –
60 | N#Cc1ccc(N2N=C(c3ccc(C(=O)O)cc3)CC2C2CCCC2)cc1 (racemic) | 151 nM | –

Reference: ChEMBL document CHEMBL1212897 (J Med Chem, 2010)
